The source of these data is ChEMBL document CHEMBL4422691, “Identification of C-6 as a New Site for Linker Conjugation to the Taccalonolide Microtubule Stabilizers” (J Nat Prod, 2019).

Data set [1] has as its target T1, Tubulin (Homo sapiens) (UniProt P68371+Q9H4B7+P0DPH7+P68366+Q13509+Q71U36+P04350+Q3ZCM7+P07437+P68363+Q9BQE3+Q6PEY2+Q13885+Q9BVA1+Q9BUF5). In words: Induction of microtubule stabilization in human HCC1937 cells assessed as bundling of microtubules at 5 uM after 24 hrs by immunofluorescence assay. The data set is classed as cell-based.
Data set [2] is described as follows: Stability of the compound in aqueous solution after 24 hrs. Conditions: buffer. The data set is classed as physicochemical.
Data set [3] concerns the target T1, Tubulin (Homo sapiens). The data set can be described thus: Induction of microtubule stabilization in human HCC1937 cells assessed as co-localization of compound with microtubule at 5 uM after 24 hrs by fluorescence assay. The data set is classed as cell-based.
The next data set has as its system HeLa. In words: Antiproliferative activity against human HeLa cells after 48 hrs by sulforhodamine B assay. The class given is functional, cell-based.
Data set [4] deals with T1, Tubulin (Homo sapiens). The data set can be described thus: Induction of microtubule stabilization in human HCC1937 cells at 5 uM after 6 hrs by live cell fluorescence imaging. The data set is classed as cell-based.
Data set [5] concerns the target T2, Tubulin (Sus scrofa) (UniProt P02554+P02550). In words: Induction of porcine tubulin polymerization at 5 to 10 uM measured at 1 min interval for 1 hr. The class given is protein assay.
In data set [6] the target is T2, Tubulin (Sus scrofa). In words: Induction of porcine tubulin polymerization measured at 1 min interval for 1 hr. The class given is protein assay.

Active and inactive are the calls of the source. No cut-off for these calls is given here.

T2 sequence (P02550 whole entry, looked up): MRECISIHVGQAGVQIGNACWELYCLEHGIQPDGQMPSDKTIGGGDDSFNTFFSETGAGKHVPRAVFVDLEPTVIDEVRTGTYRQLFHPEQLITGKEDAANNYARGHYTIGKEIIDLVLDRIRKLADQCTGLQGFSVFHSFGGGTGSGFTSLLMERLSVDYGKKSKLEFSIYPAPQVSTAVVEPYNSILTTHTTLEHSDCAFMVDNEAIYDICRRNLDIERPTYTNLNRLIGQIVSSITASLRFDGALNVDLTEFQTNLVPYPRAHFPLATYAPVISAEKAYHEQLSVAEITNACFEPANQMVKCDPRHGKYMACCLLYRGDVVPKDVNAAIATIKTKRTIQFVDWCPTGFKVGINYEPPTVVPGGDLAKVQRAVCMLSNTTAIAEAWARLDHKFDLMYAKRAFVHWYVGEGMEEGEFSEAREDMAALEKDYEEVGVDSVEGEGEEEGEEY
T2 sequence (P02554 whole entry, looked up): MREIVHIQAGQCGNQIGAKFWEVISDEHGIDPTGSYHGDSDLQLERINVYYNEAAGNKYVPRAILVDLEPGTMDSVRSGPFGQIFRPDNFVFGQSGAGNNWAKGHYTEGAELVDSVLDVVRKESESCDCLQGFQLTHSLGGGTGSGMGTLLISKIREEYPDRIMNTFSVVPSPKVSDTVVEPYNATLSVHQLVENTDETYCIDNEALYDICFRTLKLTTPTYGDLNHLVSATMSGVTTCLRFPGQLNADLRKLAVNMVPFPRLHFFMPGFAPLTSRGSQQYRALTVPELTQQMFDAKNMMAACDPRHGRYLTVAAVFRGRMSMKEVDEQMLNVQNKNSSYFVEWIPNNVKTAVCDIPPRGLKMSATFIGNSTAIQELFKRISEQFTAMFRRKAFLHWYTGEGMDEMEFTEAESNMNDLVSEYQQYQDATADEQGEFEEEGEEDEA

One may read the IC50 as the midpoint of a concentration-inhibition curve. Read a low IC50 as greater potency. Regarding `CC(=O)O[C@H]1[C@H]2[C@@H]([C@@H](O)[C@@H](OC(=O)CCCCn3cc(COc4ccc5c(c4)Oc4cc(O)ccc4C54OC(=O)c5ccccc54)nn3)[C@H]3C[C@@H]4O[C@@H]4[C@H](OC(C)=O)[C@]23C)[C@@H]2[C@@H](O)[C@@H]3[C@H]([C@H](C)[C@H]4O[C@]45OC(=O)[C@@](C)(O)[C@]35C)[C@@]2(C)[C@H]1OC(C)=O` (some centres not stated), the outcome on Tubulin (Homo sapiens) [1], at Tubulin (Homo sapiens) [3], at Tubulin (Homo sapiens) [4] and at Tubulin (Sus scrofa) [5] was Active. For the same compound, the Stability result in data set [2] is reported as “Stable”. The compound also showed a half-inhibitory concentration (IC50) in the data set with HeLa of 2500 nM.
For `CC(=O)O[C@H]1[C@H]2[C@H]([C@@H]3[C@@H](O)[C@@H]4[C@H]([C@H](C)[C@@H]5O[C@@]56OC(=O)[C@@](C)(O)[C@]46C)[C@@]3(C)[C@H]1OC(C)=O)[C@@H](O)C(=O)[C@H]1C[C@@H]3O[C@@H]3[C@H](OC(C)=O)[C@]21C`, the Activity result on Tubulin (Sus scrofa) [6] was “Dose-dependent effect”.
